From patent US7074595B2, “General means of labeling protein by using wheat embryo cell-free protein synthesis system” (CellFree Sciences Co., Ltd., priority 2000, dated 2006) come the findings set out here.

Assay type in all cases: biochemical
Holding throughout (conditions): NADPH

In assay [1] the target is T1, dihydrofolate reductase (DHFR), natural-type methionine-containing (Met-DHFR) (Escherichia coli, UniProt P0ABQ4).
T1 construct: made in house; host or cells: wheat embryo extract cell-free protein synthesis (dialysis type)
T1 sequence (P0ABQ4 1-159): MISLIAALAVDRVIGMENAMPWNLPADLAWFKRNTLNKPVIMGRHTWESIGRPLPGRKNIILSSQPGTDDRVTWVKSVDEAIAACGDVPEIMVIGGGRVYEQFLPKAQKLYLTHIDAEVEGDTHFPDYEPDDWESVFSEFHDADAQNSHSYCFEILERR
Description: enzymatic properties of DHFR (Table 1): Michaelis constant and maximum velocity, Met-DHFR. Here is the method: (§1) Purification of GFP and measurement of its activity by analysis of fluorescence spectrum using a fluorospectrophotometer were carried out in accordance with a method by Deschamps, et al. [Deschamps, J. R. et al., (1995) Protein Expression and Purification, 6, 555–558]. In the measurement of fluorescence spectrum, a fluorophotometer of type RF-5000 by Shimadzu was used. DHFR activity was measured by a method of Stanley, et al. [Methods. Enzymol. 18, 195–199 (1971)].
(§2) Then enzymatic properties of the selenomethionine-containing proteins purified as such were investigated biochemically. Fluorescence emission spectrum of a certain concentration of the purified GFP preparation shown in FIG. 2 excited at the wavelength of 395 nm was measured within a range of 410 nm to 600 nm and the result is shown in FIG. 3. As will be apparent from FIG. 3, there is no difference between the fluorescence emission spectra of GFP [(A) in FIG. 3] and selenomethionine GFP [(B) in FIG. 3]. Thus, the conclusion is that the change in GFP activity by substituting methionine residue with selenomethionine is not higher than the usual measurement sensitivity. […]

Assay [2] deals with T2, dihydrofolate reductase (DHFR), selenomethionine-containing (SeMet-DHFR) (Escherichia coli, UniProt P0ABQ4).
T2 construct: made in house; host or cells: wheat embryo extract cell-free protein synthesis (dialysis type)
T2 sequence (P0ABQ4 1-159): T1 sequence (P0ABQ4 1-159)
Description: enzymatic properties of DHFR (Table 1): Michaelis constant and maximum velocity, SeMet-DHFR. As to the method: as §1, §2

Assay [3] addresses T3, dihydrofolate reductase (DHFR), Natural-Type DHFR (Escherichia coli, UniProt P0ABQ4).
T3 construct: made in house; host or cells: wheat embryo extract cell-free protein synthesis (dialysis type)
T3 sequence (P0ABQ4 1-159): T1 sequence (P0ABQ4 1-159)
Description: enzymatic properties of DHFR (Table 2): Michaelis constant and maximum velocity, Natural-Type DHFR. Here is the method:
as §1
Then enzymatic properties of the purified heavy hydrogen-labeled DHFR were biochemically investigated by the same manner as in Example 1. As will be apparent from Table 2, both Vmax and Michaelis constant (Km) to NADPH which are parameters for enzymatic chemical property of natural-type DHFR and heavy hydrogen-labeled DHFR show no difference between both enzymes. Thus, it became clear that DHFR comprising heavy hydrogen-labeled amino acids maintained nearly the same enzymatic activity as the natural-type DHFR.

Assay [4] concerns the target T4, dihydrofolate reductase (DHFR), Heavy Hydrogen-Labeled DHFR (20 kinds of heavy hydrogen-labeled L-amino acids) (Escherichia coli, UniProt P0ABQ4).
T4 construct: made in house; host or cells: wheat embryo extract cell-free protein synthesis (dialysis type)
T4 sequence (P0ABQ4 1-159): T1 sequence (P0ABQ4 1-159)
The experiment in a line: enzymatic properties of DHFR (Table 2): Michaelis constant and maximum velocity, Heavy Hydrogen-Labeled DHFR. As to the method: as §1
With regard to the wheat embryo, that being contaminated with substantially no endosperm component prepared by the method mentioned in Example 1 was used. Preparation of an extract from wheat embryo was carried out by the exactly same method as Example 1 except that the solution for extraction and the solution used for gel filtration contained 20 kinds of heavy hydrogen-labeled L-amino acids instead of 20 kinds of selenomethionine-containing L-amino acids. Concentration of the prepared extract was adjusted to 170˜250 A260 nm (A260/A280=1.5).
Although the composition of the protein synthesis reaction solution is as same as that described in Example 1, it contains 20 kinds of heavy hydrogen-labeled L-amino acids instead of 20 kinds of selenomethionine-containing L-amino acids.
Then enzymatic properties of the purified heavy hydrogen-labeled DHFR were biochemically investigated by the same manner as in Example 1. […]

As to `NC(=O)C1=CN([C@@H]2O[C@H](COP(=O)(O)OP(=O)(O)OC[C@H]3O[C@@H](n4cnc5c(N)ncnc54)[C@H](OP(=O)(O)O)[C@@H]3O)[C@@H](O)[C@H]2O)C=CC1` [NADPH, nicotinamide adenine dinucleotide phosphate (NADPH) of a reduced type], the “maximum velocity Vmax” value was 0.143 A560 nm/μg/min in assay [1] and 0.137 A560 nm/μg/min in assay [2]. The Vmax in assay [3] turned out to be 0.127 A560 nm/μg/min; in assay [4], 0.261 A560 nm/μg/min.
